Key:
Experiment in all cases: relative viability (nuclei count vs DMSO), 5 days (fraction); higher = more cells survive
LCLC-97TM1 = system: LCLC-97TM1
Outline: (§1)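 Lung cancer cell lines in 1536-well plates got either a single drug or a fixed anchor-drug dose together with five library-drug doses (not always all listed) in √10 steps, by pin tool, on the day after seeding. Nuclei were counted after 5 days, and relative viability is the treated-to-vehicle ratio of nuclei counts. Values are medians of duplicate plates.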

BEN = system: BEN
Outline: as §1

201T = system: 201T
Outline: as §1

LCLC-103H = system: LCLC-103H
Outline: as §1

NCI-H3122 = system: NCI-H3122
Outline: as §1

NCI-H1650 = system: NCI-H1650
Outline: as §1

NCI-H2087 = system: NCI-H2087
Outline: as §1

NCI-H2228 = system: NCI-H2228
Outline: as §1

NCI-H1395 = system: NCI-H1395
Outline: as §1

NCI-H2405 = system: NCI-H2405
Outline: as §1

SK-LU-1 = system: SK-LU-1
Outline: as §1

NCI-H1792 = system: NCI-H1792
Outline: as §1

NCI-H322M = system: NCI-H322M
Outline: as §1

RERF-LC-KJ = system: RERF-LC-KJ
Outline: as §1

NCI-H1944 = system: NCI-H1944
Outline: as §1

NCI-H1793 = system: NCI-H1793
Outline: as §1

HCC-827 = system: HCC-827
Outline: as §1

CAL-12T = system: CAL-12T
Outline: as §1

NCI-H727 = system: NCI-H727
Outline: as §1

NCI-H1437 = system: NCI-H1437
Outline: as §1

NCI-H647 = system: NCI-H647
Outline: as §1

LXF-289 = system: LXF-289
Outline: as §1

Question: Which relative viability (LCLC-97TM1; first compound 0.0002 µM) does the source give for `CC(=O)O[C@@]12CO[C@@H]1C[C@H](O)[C@@]1(C)C(=O)[C@H](O)C3=C(C)[C@@H](OC(=O)[C@H](O)[C@@H](NC(=O)OC(C)(C)C)c4ccccc4)C[C@@](O)([C@@H](OC(=O)c4ccccc4)[C@H]21)C3(C)C` [Docetaxel] + N=C(N)NC(=N)NCCc1ccccc1 [Phenformin] (partner 250 µM) here?
Answer: 0.403

Question: What about the relative viability (LCLC-97TM1; first compound 0.000632 µM) of the same compound?
Answer: 0.366

Question: And the relative viability (LCLC-97TM1; first compound 0.002 µM)?
Answer: 0.267

Question: And the relative viability (LCLC-97TM1; first compound 0.006325 µM)?
Answer: 0.162

Question: What about the relative viability (LCLC-97TM1; first compound 0.02 µM) of the same compound?
Answer: 0.131

Question: What about the relative viability (BEN; first compound 0.0002 µM) of the same compound?
Answer: 0.248

Question: And the relative viability (BEN; first compound 0.000632 µM)?
Answer: 0.253

Question: What about the relative viability (BEN; first compound 0.002 µM) of the same compound?
Answer: 0.307

Question: What about the relative viability (BEN; first compound 0.006325 µM) of the same compound?
Answer: 0.215

Question: And the relative viability (BEN; first compound 0.02 µM)?
Answer: 0.194

Question: What about the relative viability (201T; first compound 0.0002 µM) of the same compound?
Answer: 0.4

Question: What about the relative viability (201T; first compound 0.000632 µM) of the same compound?
Answer: 0.366

Question: What about the relative viability (201T; first compound 0.002 µM) of the same compound?
Answer: 0.36

Question: What about the relative viability (201T; first compound 0.006325 µM) of the same compound?
Answer: 0.342

Question: And the relative viability (201T; first compound 0.02 µM)?
Answer: 0.242

Question: What about the relative viability (LCLC-103H; first compound 0.0002 µM) of the same compound?
Answer: 0.347

Question: What about the relative viability (LCLC-103H; first compound 0.000632 µM) of the same compound?
Answer: 0.344

Question: And the relative viability (LCLC-103H; first compound 0.002 µM)?
Answer: 0.308

Question: And the relative viability (LCLC-103H; first compound 0.006325 µM)?
Answer: 0.282

Question: What about the relative viability (LCLC-103H; first compound 0.02 µM) of the same compound?
Answer: 0.248

Question: What about the relative viability (NCI-H3122; first compound 0.0002 µM) of the same compound?
Answer: 0.368

Question: And the relative viability (NCI-H3122; first compound 0.000632 µM)?
Answer: 0.345

Question: What about the relative viability (NCI-H3122; first compound 0.002 µM) of the same compound?
Answer: 0.261

Question: What about the relative viability (NCI-H3122; first compound 0.006325 µM) of the same compound?
Answer: 0.152

Question: What about the relative viability (NCI-H3122; first compound 0.02 µM) of the same compound?
Answer: 0.139

Question: And the relative viability (NCI-H1650; first compound 0.0002 µM)?
Answer: 0.349

Question: What about the relative viability (NCI-H1650; first compound 0.000632 µM) of the same compound?
Answer: 0.287

Question: And the relative viability (NCI-H1650; first compound 0.006325 µM)?
Answer: 0.147

Question: What about the relative viability (NCI-H1650; first compound 0.02 µM) of the same compound?
Answer: 0.0956

Question: And the relative viability (NCI-H2087; first compound 0.0002 µM)?
Answer: 0.44

Question: What about the relative viability (NCI-H2087; first compound 0.000632 µM) of the same compound?
Answer: 0.38

Question: What about the relative viability (NCI-H2087; first compound 0.002 µM) of the same compound?
Answer: 0.152

Question: And the relative viability (NCI-H2087; first compound 0.006325 µM)?
Answer: 0.159

Question: What about the relative viability (NCI-H2087; first compound 0.02 µM) of the same compound?
Answer: 0.0907

Question: What about the relative viability (NCI-H2228; first compound 0.0002 µM) of the same compound?
Answer: 0.302

Question: And the relative viability (NCI-H2228; first compound 0.000632 µM)?
Answer: 0.173

Question: And the relative viability (NCI-H2228; first compound 0.002 µM)?
Answer: 0.147

Question: And the relative viability (NCI-H2228; first compound 0.006325 µM)?
Answer: 0.158

Question: And the relative viability (NCI-H2228; first compound 0.02 µM)?
Answer: 0.123

Question: And the relative viability (NCI-H1395; first compound 0.0002 µM)?
Answer: 0.434

Question: What about the relative viability (NCI-H1395; first compound 0.000632 µM) of the same compound?
Answer: 0.45

Question: What about the relative viability (NCI-H1395; first compound 0.002 µM) of the same compound?
Answer: 0.442

Question: And the relative viability (NCI-H1395; first compound 0.006325 µM)?
Answer: 0.283

Question: And the relative viability (NCI-H1395; first compound 0.02 µM)?
Answer: 0.334

Question: What about the relative viability (NCI-H2405; first compound 0.0002 µM) of the same compound?
Answer: 0.393

Question: And the relative viability (NCI-H2405; first compound 0.000632 µM)?
Answer: 0.419

Question: What about the relative viability (NCI-H2405; first compound 0.002 µM) of the same compound?
Answer: 0.315

Question: And the relative viability (NCI-H2405; first compound 0.006325 µM)?
Answer: 0.297

Question: What about the relative viability (NCI-H2405; first compound 0.02 µM) of the same compound?
Answer: 0.26

Question: What about the relative viability (SK-LU-1; first compound 0.0002 µM) of the same compound?
Answer: 0.48

Question: And the relative viability (SK-LU-1; first compound 0.000632 µM)?
Answer: 0.285

Question: What about the relative viability (SK-LU-1; first compound 0.002 µM) of the same compound?
Answer: 0.239

Question: And the relative viability (SK-LU-1; first compound 0.006325 µM)?
Answer: 0.183

Question: What about the relative viability (SK-LU-1; first compound 0.02 µM) of the same compound?
Answer: 0.115

Question: And the relative viability (NCI-H1792; first compound 0.0002 µM)?
Answer: 0.221

Question: What about the relative viability (NCI-H1792; first compound 0.000632 µM) of the same compound?
Answer: 0.23

Question: And the relative viability (NCI-H1792; first compound 0.002 µM)?
Answer: 0.0848

Question: What about the relative viability (NCI-H1792; first compound 0.006325 µM) of the same compound?
Answer: 0.126

Question: What about the relative viability (NCI-H1792; first compound 0.02 µM) of the same compound?
Answer: 0.0575

Question: And the relative viability (NCI-H322M; first compound 0.0002 µM)?
Answer: 0.807

Question: And the relative viability (NCI-H322M; first compound 0.000632 µM)?
Answer: 0.765

Question: What about the relative viability (NCI-H322M; first compound 0.002 µM) of the same compound?
Answer: 0.656

Question: And the relative viability (NCI-H322M; first compound 0.006325 µM)?
Answer: 0.478

Question: What about the relative viability (NCI-H322M; first compound 0.02 µM) of the same compound?
Answer: 0.332

Question: What about the relative viability (RERF-LC-KJ; first compound 0.0002 µM) of the same compound?
Answer: 0.454

Question: And the relative viability (RERF-LC-KJ; first compound 0.000632 µM)?
Answer: 0.405

Question: What about the relative viability (RERF-LC-KJ; first compound 0.002 µM) of the same compound?
Answer: 0.238

Question: And the relative viability (RERF-LC-KJ; first compound 0.006325 µM)?
Answer: 0.209

Question: What about the relative viability (RERF-LC-KJ; first compound 0.02 µM) of the same compound?
Answer: 0.195

Question: And the relative viability (NCI-H1944; first compound 0.0002 µM)?
Answer: 0.182

Question: And the relative viability (NCI-H1944; first compound 0.000632 µM)?
Answer: 0.188

Question: And the relative viability (NCI-H1944; first compound 0.002 µM)?
Answer: 0.163

Question: And the relative viability (NCI-H1944; first compound 0.006325 µM)?
Answer: 0.133

Question: And the relative viability (NCI-H1944; first compound 0.02 µM)?
Answer: 0.0967

Question: What about the relative viability (NCI-H1793; first compound 0.0002 µM) of the same compound?
Answer: 0.302

Question: And the relative viability (NCI-H1793; first compound 0.000632 µM)?
Answer: 0.319

Question: What about the relative viability (NCI-H1793; first compound 0.002 µM) of the same compound?
Answer: 0.322

Question: What about the relative viability (NCI-H1793; first compound 0.006325 µM) of the same compound?
Answer: 0.245

Question: What about the relative viability (NCI-H1793; first compound 0.02 µM) of the same compound?
Answer: 0.173

Question: And the relative viability (HCC-827; first compound 0.0002 µM)?
Answer: 0.392

Question: And the relative viability (HCC-827; first compound 0.000632 µM)?
Answer: 0.426

Question: And the relative viability (HCC-827; first compound 0.002 µM)?
Answer: 0.357

Question: And the relative viability (HCC-827; first compound 0.006325 µM)?
Answer: 0.247

Question: And the relative viability (HCC-827; first compound 0.02 µM)?
Answer: 0.213

Question: What about the relative viability (CAL-12T; first compound 0.0002 µM) of the same compound?
Answer: 0.522

Question: What about the relative viability (CAL-12T; first compound 0.000632 µM) of the same compound?
Answer: 0.305

Question: What about the relative viability (CAL-12T; first compound 0.002 µM) of the same compound?
Answer: 0.185

Question: What about the relative viability (CAL-12T; first compound 0.006325 µM) of the same compound?
Answer: 0.135

Question: What about the relative viability (CAL-12T; first compound 0.02 µM) of the same compound?
Answer: 0.118

Question: And the relative viability (NCI-H727; first compound 0.0002 µM)?
Answer: 0.49

Question: What about the relative viability (NCI-H727; first compound 0.000632 µM) of the same compound?
Answer: 0.601

Question: What about the relative viability (NCI-H727; first compound 0.002 µM) of the same compound?
Answer: 0.457

Question: What about the relative viability (NCI-H727; first compound 0.006325 µM) of the same compound?
Answer: 0.472

Question: And the relative viability (NCI-H727; first compound 0.02 µM)?
Answer: 0.354

Question: What about the relative viability (NCI-H1437; first compound 0.0002 µM) of the same compound?
Answer: 0.3

Question: What about the relative viability (NCI-H1437; first compound 0.000632 µM) of the same compound?
Answer: 0.294

Question: What about the relative viability (NCI-H1437; first compound 0.002 µM) of the same compound?
Answer: 0.23

Question: What about the relative viability (NCI-H1437; first compound 0.006325 µM) of the same compound?
Answer: 0.154

Question: What about the relative viability (NCI-H1437; first compound 0.02 µM) of the same compound?
Answer: 0.123

Question: What about the relative viability (NCI-H647; first compound 0.0002 µM) of the same compound?
Answer: 0.329

Question: And the relative viability (NCI-H647; first compound 0.000632 µM)?
Answer: 0.322

Question: What about the relative viability (NCI-H647; first compound 0.002 µM) of the same compound?
Answer: 0.133

Question: What about the relative viability (NCI-H647; first compound 0.006325 µM) of the same compound?
Answer: 0.106

Question: What about the relative viability (NCI-H647; first compound 0.02 µM) of the same compound?
Answer: 0.0836

Question: What about the relative viability (LXF-289; first compound 0.0002 µM) of the same compound?
Answer: 0.521

Question: And the relative viability (LXF-289; first compound 0.000632 µM)?
Answer: 0.42

Question: And the relative viability (LXF-289; first compound 0.002 µM)?
Answer: 0.127

Question: And the relative viability (LXF-289; first compound 0.006325 µM)?
Answer: 0.0915

Question: And the relative viability (LXF-289; first compound 0.02 µM)?
Answer: 0.0828

From the supplement of paper PMC10307832
